# Like-named read-outs stand apart in the source and are kept apart here.
# Experiments:
# [1] = tested on: isolated rat ileum mucosa
# PK1 receptor = molecular target: T1, PK1 receptor (Rattus norvegicus, UniProt Q8R416); experiment: Suppression of PK1 evoked increase in Isc in isolated rat ileum mucosa; details: test compound 1 µM, 15 min; PK1 10 and 100 nM cumulative
# T1 construct: The PK1 evoked increase in Isc requires the presence of endogenous PK1 receptors; from tissue; host or cells: rat ileum mucosa (Ussing-type chambers)
# T1 sequence (Q8R416 whole entry): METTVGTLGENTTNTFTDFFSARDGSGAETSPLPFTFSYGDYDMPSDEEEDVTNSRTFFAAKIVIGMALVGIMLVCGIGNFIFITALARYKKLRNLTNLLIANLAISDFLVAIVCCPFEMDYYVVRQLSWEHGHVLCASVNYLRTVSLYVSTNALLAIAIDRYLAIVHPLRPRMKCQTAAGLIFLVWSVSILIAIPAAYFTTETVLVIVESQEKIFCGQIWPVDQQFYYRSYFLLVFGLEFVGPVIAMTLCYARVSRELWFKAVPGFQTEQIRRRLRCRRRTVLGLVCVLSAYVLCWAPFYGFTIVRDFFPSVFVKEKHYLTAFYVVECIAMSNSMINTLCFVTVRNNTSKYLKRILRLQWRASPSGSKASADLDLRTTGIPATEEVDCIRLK
# Description: Methodology. The basic methodology for Ussing-type ion flux chambers used in these studies was the same as that described in detail above with the following modifications to the experimental protocol. […] The responses to two sequential EFS were used to gauge tissue viability and comparability of the responses of individual tissues from each rat and between rats. Tissue conductance was measured at periodic intervals as changes in the amplitudes of brief short-circuit current responses evoked by application of 1 mV amplitude bi-polar pulses from a pulse generator using Ohm's Law. Three to four tissues from each rat were studied. The tissues from a given animal were grouped and assigned accordingly: one control tissue which received only vehicle followed by two consecutive doses of PK-1 ligand added in a cumulative fashion to the basolateral surface of the tissue; the remaining two to three tissues from the same animal were assigned to be exposed to a given PK-1 receptor antagonist (e.g., 3-4 tissues from 1 rat: Control, Antagonist1, Antagonist2, and/or Antagonist3). Test compound was added to the basolateral tissue side reservoir at a final concentration of 1 µM and allowed a 15 minute incubation period prior to challenge with the PK1 peptide. […]
# [2] = molecular target: T2, GPR73 (prokineticin 1 receptor) (Homo sapiens, UniProt Q8TCW9); experiment: PK1 functional assay: Ca2+ mobilization on the FLIPR; format: cell-based; details: for IC50: HEK 293 GPR73 cells, read-out: Ca^2+ Mobilization IC50
# T2 construct: expressed in transfected cells; host or cells: HEK 293
# T2 sequence (Q8TCW9 whole entry, species assumed): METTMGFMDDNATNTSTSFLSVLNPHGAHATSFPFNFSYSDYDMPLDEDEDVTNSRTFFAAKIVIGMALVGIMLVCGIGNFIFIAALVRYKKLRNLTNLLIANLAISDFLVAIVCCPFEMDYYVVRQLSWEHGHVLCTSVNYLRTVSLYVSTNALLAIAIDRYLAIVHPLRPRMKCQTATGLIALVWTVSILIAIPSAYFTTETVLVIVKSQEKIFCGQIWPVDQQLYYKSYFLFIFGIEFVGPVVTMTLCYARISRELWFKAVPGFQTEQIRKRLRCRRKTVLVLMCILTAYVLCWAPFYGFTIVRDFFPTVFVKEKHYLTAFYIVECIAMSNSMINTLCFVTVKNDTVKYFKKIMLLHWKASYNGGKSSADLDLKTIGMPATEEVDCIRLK
# Description: At a time of 24 h prior to running the assay, in cell culture media (DMEM containing high Glucose and L-glutamine, 10% FBS, 1% Pen/Streptomycin, 1% Sodium Pyruvate, 20 mM HEPES, Zeocin 200 mg/L), 100 µL of 1.3*10^6/ml HEK 293 GPR73 (prokineticin 1 receptor) expressing cells were plated in a 96 well poly-d-lysine coated plate (Costar), and incubated at 37° C. and 5% CO2. On the day in which the assay was run, the media was removed and 200 µL of 5× Calcium Plus Dye (Molecular Devices) which was previously resuspended with 200 mL of assay buffer [HBSS w/Ca^2+ and Mg^2+ w/o phenol red, 20 mM HEPES, 0.1% BSA, 10 mL probenecid (710 mg probenecid in 5 mL of 1N NaOH, to which was then added 5 mL HBSS containing 20 mM HEPES)] was added to each well of the 96-well plate. The plate was incubated at 37° C. and 5% CO2 for 30 min in dark. The plate was removed and allowed to reach RT for 15 min in the dark. The assay was then run on the FLIPR. In Brief: base line read for 1 min, compound added (25 μL) and incubated for 4 min, 15 seconds, PK1 ligand preparation added (25 μL) for a final concentration of a previously determined EC50 and fluorescence was counted for 1 min, 45 seconds. Baseline is described as the amount of relative fluorescence read when buffer alone is added to cells. Baseline was subtracted from all wells. Percent of control was calculated as follows: (Baseline subtracted well value is divided by baseline subtracted max value)*100. Percent inhibition is 100 minus the percent of control value.
# The IC50 is defined as the amount of a given compound required to inhibit 50% of the maximum signal that is generated by the concentration of PK1 preparation used in our assay. IC50 values were calculated using GraphPad Prism.
# rat ileum mucosa = experiment: Carbachol-evoked Isc in rat ileum mucosa (selectivity test); details: carbachol at two concentrations, ascending cumulative, serosal side
compound,measurement,setting,value
"COc1ccc(Cn2c(NCCn3c(N)nc4ccc(C)cc43)nc(=O)n(Cc3ccc(F)cc3)c2=O)cc1 [Cpd 3, 6-[2-(2-Amino-6-methyl-benzoimidazol-1-yl)-ethylamino]-3-(4-fluoro-benzyl)-1-(4-methoxy-benzyl)-1H-[1,3,5]triazine-2,4-dione]",suppression of Cholera toxin induced increase in Isc (figure legends),[1],suppresses
same,suppression of the sustained increase in baseline Isc evoked by Cholera toxin,[1],50-60%
same,effect versus increased baseline Isc evoked by Vibrio cholera toxin,[1]; 1 μM,no significant effect
same,suppression of the PK1 evoked increase in Isc,PK1 receptor,suppresses
same,Ca^2+ Mobilization % Inh @10 µM,"[2]; 10 µM, (further determination)",94%
same,Ca^2+ Mobilization % Inh @10 µM,[2]; 10 µM,96%
same,IC50,[2]; IC50 (further determination),29 nM
same,IC50,[2],8 nM
same,suppression of the pro-secretory effect of carbachol,rat ileum mucosa,failed to suppress

# — US8324380B2, “Amino-heteroaryl-containing prokineticin 1 receptor antagonists” (Janssen Pharmaceutica NV, priority 2007, dated 2012)
